In PubChem BioAssay (NCI):
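Values below derive from 48-hour exposures of cells grown in 96-well plates, with endpoints linearly interpolated between the two concentrations bracketing the appropriate inhibition level. GI50 is the concentration that inhibits growth by half. TGI denotes the concentration required for complete inhibition of growth.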

Assays:
Experiment in all cases: inhibition of tumour cell growth, NCI panel, 48 h
UACC-62 melanoma = tested on: UACC-62 melanoma
HCT-15 colon = tested on: HCT-15 colon
NCI-H460 lung = tested on: NCI-H460 lung
ACHN renal = tested on: ACHN renal
SK-MEL-2 melanoma = tested on: SK-MEL-2 melanoma
SK-MEL-5 melanoma = tested on: SK-MEL-5 melanoma
HT29 colon = tested on: HT29 colon
HOP-92 NSCLC = tested on: HOP-92 NSCLC
CAKI-1 renal = tested on: CAKI-1 renal
SNB-19 CNS = tested on: SNB-19 CNS

SMILES | TGI (UACC-62 melanoma) | TGI (HCT-15 colon) | TGI (NCI-H460 lung) | TGI (ACHN renal) | TGI (SK-MEL-2 melanoma) | TGI (SK-MEL-5 melanoma) | TGI (HT29 colon) | TGI (HOP-92 NSCLC) | TGI (CAKI-1 renal) | TGI (SNB-19 CNS) | GI50 (NCI-H460 lung) | GI50 (ACHN renal) | GI50 (SK-MEL-2 melanoma) | GI50 (HT29 colon) | GI50 (HOP-92 NSCLC) | GI50 (CAKI-1 renal) | GI50 (UACC-62 melanoma) | GI50 (HCT-15 colon) | GI50 (SK-MEL-5 melanoma) | GI50 (SNB-19 CNS)
C[n+]1cccc(/C=C/c2ccc3cccc(O)c3n2)c1 | > 100 µM | > 100 µM | > 100 µM | > 100 µM | > 100 µM | > 100 µM | > 100 µM | > 100 µM | > 100 µM | > 100 µM | – | – | – | – | – | – | – | – | – | –
CC(C)CNc1nc(N)[nH]c(=O)c1NC=O | > 100 µM | > 100 µM | > 100 µM | > 100 µM | > 100 µM | > 100 µM | > 100 µM | > 100 µM | > 100 µM | > 100 µM | – | – | – | – | – | – | – | – | – | –
COc1ccc(CNc2nc(NCc3ccc(OC)cc3)nc(NC(C)C)n2)cc1 | 31.1 µM | > 100 µM | 17 µM | 59.1 µM | 44.2 µM | 16.5 µM | > 100 µM | 48.7 µM | 66.4 µM | > 100 µM | – | – | – | – | – | – | – | – | – | –
NCS(=O)(=O)O | > 100 µM | > 100 µM | > 100 µM | > 100 µM | > 100 µM | > 100 µM | > 100 µM | > 100 µM | > 100 µM | > 100 µM | – | – | – | – | – | – | – | – | – | –
Cn1cnc([N+](=O)[O-])c1SCC(=O)O | > 100 µM | > 100 µM | > 100 µM | > 100 µM | > 100 µM | > 100 µM | > 100 µM | > 100 µM | > 100 µM | > 100 µM | – | – | – | – | – | – | – | – | – | –
CCOC(=O)c1c2c(c(O)c3ccccc3c(O)n(-c3ccc(C)cc3)c1C)C(=O)C=CC2=O | 71.7 µM | 34.7 µM | 84.6 µM | 38.4 µM | 64.7 µM | 31.9 µM | 41.1 µM | 56.9 µM | 43.3 µM | > 100 µM | – | – | – | – | – | – | – | – | – | –
COc1cnc2c(c1)C(=O)c1c-2n(CCCN2CCNCC2)c(=O)c2cc(Cl)ccc12 | – | – | 1.29 µM | 1.27 µM | 4.65 µM | – | 2.21 µM | 13.7 µM | 1.91 µM | – | 0.0449 µM | 0.181 µM | 2.11 µM | 0.66 µM | 1.12 µM | 0.414 µM | – | – | – | –
N=C(N)c1ccc(-c2ccc(-c3ccc(Cl)cn3)s2)cc1 | 3.38 µM | 3.08 µM | – | 2.96 µM | – | 3.19 µM | – | 2.67 µM | – | – | – | 1.61 µM | – | – | 1.27 µM | – | 1.84 µM | 1.61 µM | 1.77 µM | –
CCOC(=O)C1=C(C)N(C)C(=S)NC1c1cccc(O)c1 (centres undefined) | > 100 µM | > 100 µM | > 100 µM | > 100 µM | 97.2 µM | > 100 µM | > 100 µM | 75.1 µM | > 100 µM | > 100 µM | – | – | – | – | – | – | – | – | – | –
CC(C)(C)C1CCC2(CC1)CCN(CCCN1CCOCC1)CC2 | 25 µM | > 57.9 µM | > 100 µM | > 100 µM | 53.2 µM | 21.4 µM | > 34.2 µM | > 63.9 µM | > 88 µM | > 100 µM | – | – | – | – | – | – | – | – | – | –
O=C(c1cc(Br)ccc1O)c1cc(Br)ccc1O | 25.8 µM | 38.5 µM | 32.1 µM | 29.9 µM | 30.1 µM | 25.4 µM | 31.7 µM | 27.1 µM | 32.2 µM | 32.3 µM | – | – | – | – | – | – | – | – | – | –
COc1cc2ccc1-c1cc(ccc1O)CC1c3cc4c(cc3CCN1C)Oc1c(OC)cc3c(c1O4)C(C2)N(C)CC3 (centres undefined) | 3.44 µM | 3.12 µM | 3.23 µM | 3.74 µM | 3.38 µM | 3.52 µM | 3.27 µM | 27 µM | 5.79 µM | 4.28 µM | – | – | – | – | – | – | – | – | – | –
CN(C)CCNC(=O)c1cccc2nc3c4ccccc4c4ccccc4c3nc12 | 5.51 µM | 3.13 µM | 2.35 µM | 12.4 µM | 8.24 µM | 15.7 µM | 3.01 µM | 39.4 µM | 47.7 µM | 8.6 µM | – | – | – | – | – | – | – | – | – | –
C[C@H]1CCC/C=C/[C@@H]2C[C@H](O)C[C@H]2[C@H](O)[C@@H](S(=O)CCN)CC(=O)O1 (some centres undefined) | > 82 µM | 10.8 µM | 0.0743 µM | 2.84 µM | – | 0.0295 µM | 0.0378 µM | > 100 µM | – | > 100 µM | 0.0119 µM | 0.121 µM | 0.111 µM | < 0.0158 µM | 0.274 µM | 0.0979 µM | 0.0197 µM | 0.28 µM | 0.015 µM | 0.21 µM
Cc1c2ccnc(-c3ccccc3)c2cc2c1[nH]c1ccccc12 | 5.48 µM | 9.62 µM | 7.36 µM | – | 7.3 µM | 2.78 µM | 8.14 µM | 3.12 µM | 6.96 µM | 17.9 µM | – | – | – | – | – | – | – | – | – | –
COc1cc2c(cc1OC)C(Cl)C(c1ccc(Cl)cc1)=C2Cl (centres undefined) | 40.4 µM | 41.4 µM | 29.8 µM | 30.1 µM | 36.3 µM | 28.3 µM | 28.6 µM | 32.3 µM | 40.3 µM | > 100 µM | – | – | – | – | – | – | – | – | – | –
O=C(CC1(O)C(=O)Nc2ccc(Br)cc21)c1ccc(C(=O)NCC2CCC3(CC2)OOC2(CCCCC2)OO3)cc1 (centres undefined) | 29.2 µM | 34.3 µM | 30.2 µM | 5.38 µM | 9.23 µM | 7.09 µM | 23 µM | 4.46 µM | 31.2 µM | 38.7 µM | 3.37 µM | 2.02 µM | 2.92 µM | 4.96 µM | 1.9 µM | 13.5 µM | 5.77 µM | 4.59 µM | 2.4 µM | 10.5 µM
Cc1cc(=O)[nH]c(NN2C(Cl)C(=O)C2c2cccc([N+](=O)[O-])c2)n1 (centres undefined) | 42.5 µM | 31.5 µM | > 100 µM | > 100 µM | 36.2 µM | 33.5 µM | 49.9 µM | 34.1 µM | – | > 100 µM | – | – | – | – | – | – | – | – | – | –
Cc1ccc(C)c(/C(=N\N=C(N)N)C2CC2)c1 | > 100 µM | > 100 µM | 47.9 µM | > 100 µM | > 100 µM | > 100 µM | > 100 µM | > 100 µM | > 100 µM | > 100 µM | – | – | – | – | – | – | – | – | – | –
COc1ccc(-n2c3c(c4cc(O)ccc42)C(=O)c2ccccc2C3=O)cc1 | 25.6 µM | > 100 µM | > 100 µM | 56.7 µM | > 100 µM | > 100 µM | 18.6 µM | 47.5 µM | > 100 µM | > 100 µM | – | – | – | – | – | – | – | – | – | –
Oc1cc(O)cc(/C=C/c2ccc(O)c(O)c2)c1 | 15 µM | > 100 µM | 60.5 µM | – | 16 µM | > 49.1 µM | 57 µM | 50.3 µM | > 30.8 µM | > 88.4 µM | – | – | – | – | – | – | – | – | – | –
CN(C)c1ccc(C2CC(=O)C(C#N)=C(c3ccccc3)NN2C)cc1 (centres undefined) | – | 32.5 µM | 36.9 µM | > 100 µM | 57.2 µM | 11.9 µM | 24.5 µM | > 100 µM | > 100 µM | > 100 µM | – | – | – | – | – | – | – | – | – | –
CC[C@H](Nc1nc(N)nc(N)c1Cl)c1nc2cccc(NCc3ccc(C(=O)NO)cc3)c2c(=O)n1-c1ccccc1 | 2.81 µM | 4.75 µM | 4.43 µM | 4.2 µM | 5.27 µM | 3.22 µM | 5.27 µM | 2.81 µM | 5 µM | 4.18 µM | 1.94 µM | 1.98 µM | 2.02 µM | 2.01 µM | 1.26 µM | 2 µM | 1.41 µM | 2.02 µM | 1.75 µM | 1.7 µM
Cc1ncc(CO)c(CN)c1O | > 100 µM | > 100 µM | > 100 µM | > 100 µM | > 100 µM | > 100 µM | > 100 µM | – | > 100 µM | > 100 µM | – | – | – | – | – | – | – | – | – | –
O=C1c2ccccc2C(=O)c2c(NCCNC(=O)C3CCCN3)ccc(NCCNC(=O)C3CCCN3)c21 (centres undefined) | > 100 µM | > 100 µM | – | > 100 µM | > 100 µM | > 100 µM | > 100 µM | > 100 µM | > 100 µM | > 100 µM | – | – | – | – | – | – | – | – | – | –
